Measured values from US20260306514A1, “ORAL PHARMACEUTICAL FORMULATIONS CONTAINING 4-((2-HYDROXY-3-METHOXYBENZYL)AMINO) BENZENESULFONAMIDE DERIVATIVES” (Cadrenal Therapeutics, Inc., priority 2022, published 2026).
≈ marks a conversion by molar mass, not a printed value. Like-named read-outs stand apart in the source and are kept apart here.

What was measured:
Aqueous solubility = assay type: physicochemical; conditions: for solubility in water: in words
[1] = Solubility of Compound 1 in organic solvents relevant to spray drying (Table 3); assay type: physicochemical; conditions: for solubility: organic solvent or mixture, read-out: Solubility Concentration
Experimental: THF was the most suitable solvent, and could be combined with other solvents such as acetone, ethanol and water to enable dissolution of the drug, polymer and additives in the formulation. Furthermore, given the anticipated dose of the product, maximizing the drug loading in the amorphous dispersion was essential.
Solubility in organic solvents relevant to spray draying were conducted ([…]), showing that THF with EtOH in water was preferred (85/10/5).

[2] = Oral bioavailability of Compound 1 suspension in mice; conditions: mouse, in vivo, suspension in 0.5% methylcellulose
Excerpt: While this vehicle is sufficient for short term efficacy studies, the inventors needed a more robust and clinically relevant formulation for the longer dosing regimens required for mouse efficacy models.

12-LOX = conditions: in words; cited from earlier work
[3] = Rat PK of Compound 1, IV and oral suspension (Table 1); set-up: species or system rats; conditions: in vivo; for bioavailability: po, rats
Excerpt: (§1) The intravenous formulation uses cyclodextrin (CD) to increase solubility. However, a drug loading of <10% is not suitable for oral formulation. The inventors explored a new approach to oral formulation without guidance from the art including lipid solubility screening in various non-aqueous vehicles, self micro-emulsifying systems with oils, surfactants, and co-surfactants, amorphous solid dispersions via hot melt and spray drying, micronization, and in silico screen of supercritical fluid nanoparticle engineering. […] The pharmaceutical acceptable carrier can be a polymer.

[4] = Rat PK of Compound 1, IV and oral solution (Table 2); assay type: in vivo, rats
Excerpt: as §1, with “However, a drug loading of <10% is not suitable for oral formulation.” left out

COc1cccc(CNc2ccc(S(=O)(=O)Nc3nc4ccccc4s3)cc2)c1O [Compound 1, N-(benzo[d]thiazol-2-yl)-4-((2-hydroxy-3-methoxybenzyl)amino)benzenesulfonamide]
solubility in water (Aqueous solubility): poor solubility in water
solubility enhancement (Aqueous solubility; phosphate buffer or simulated intestinal fluid): greatly enhanced
Soluble ([1]; 50:45:5 Tetrahydrofuran:Acetone:Water): Yes
solubility ([1]; 50:45:5 tetrahydrofuran:acetone:water): 10000 µg/mL (≈ 22.6 mM)
Soluble ([1]; 50:50 Acetone:Methanol): No
Soluble ([1]; 50:50 Methylene Chloride:Methanol): No
solubility ([1]; 50:50 acetone:methanol): < 2500 µg/mL
solubility ([1]; 50:50 methylene chloride:methanol): < 2500 µg/mL
Soluble ([1]; 85:10:5 Tetrahydrofuran:Ethanol:Water): Yes
solubility ([1]; 85:10:5 tetrahydrofuran:ethanol:water): 10000 µg/mL (≈ 22.6 mM)
Soluble ([1]; 95:5 Tetrahydrofuran:Water): Yes
solubility ([1]; 95:5 tetrahydrofuran:water): 10000 µg/mL (≈ 22.6 mM)
solubilization by solvents utilized in the prior art ([1]; majority of solvents, in words): did not solubilize Compound 1 to an adequate level
bioavailability [2]: < 5%
12-LOX inhibitory potency (12-LOX): highly potent
AUC(0-inf) ([3]; IV, 3 mg/kg): 43600 ng·h/mL
AUC(0-t) ([3]; IV, 3 mg/kg): 43600 ng·h/mL
Cmax ([3]; IV, 3 mg/kg): 49600 ng/mL
Tmax ([3]; IV, 3 mg/kg): 0.083 h
half-life ([3]; IV, 3 mg/kg): 2.58 h
AUC(0-inf) ([3]; IV, 10 mg/kg): 100000 ng·h/mL
AUC(0-t) ([3]; IV, 10 mg/kg): 100000 ng·h/mL
Cmax ([3]; IV, 10 mg/kg): 91200 ng/mL
Tmax ([3]; IV, 10 mg/kg): 0.083 h
half-life ([3]; IV, 10 mg/kg): 2.98 h
AUC(0-inf) ([3]; IV, 30 mg/kg): 214000 ng·h/mL
AUC(0-t) ([3]; IV, 30 mg/kg): 213000 ng·h/mL
Cmax ([3]; IV, 30 mg/kg): 180000 ng/mL
Tmax ([3]; IV, 30 mg/kg): 0.083 h
half-life ([3]; IV, 30 mg/kg): 2.56 h
AUC(0-inf) ([3]; oral suspension, 3 mg/kg): 237 ng·h/mL
AUC(0-t) ([3]; oral suspension, 3 mg/kg): 203 ng·h/mL
Cmax ([3]; oral suspension, 3 mg/kg): 30 ng/mL
Tmax ([3]; oral suspension, 3 mg/kg): 4 h
half-life ([3]; oral suspension, 3 mg/kg): 1.82 h
AUC(0-inf) ([3]; oral suspension, 10 mg/kg): 478 ng·h/mL
AUC(0-t) ([3]; oral suspension, 10 mg/kg): 399 ng·h/mL
Cmax ([3]; oral suspension, 10 mg/kg): 71.3 ng/mL
Tmax ([3]; oral suspension, 10 mg/kg): 2.67 h
half-life ([3]; oral suspension, 10 mg/kg): 3.41 h
AUC(0-inf) ([3]; oral suspension, 30 mg/kg): 768 ng·h/mL
AUC(0-t) ([3]; oral suspension, 30 mg/kg): 737 ng·h/mL
Cmax ([3]; oral suspension, 30 mg/kg): 142 ng/mL
Tmax ([3]; oral suspension, 30 mg/kg): 2.67 h
half-life ([3]; oral suspension, 30 mg/kg): 2.46 h
bioavailability ([3]; suspension dosing, read-out: Bioavailability): < 0.5%
bioavailability ([3]; suspension in 0.5% methylcellulose, read-out: oral bioavailability): < 5%
C0 or Cmax ([4]; IV, 3 mg/Kg, C0 extrapolated to T = 0 h): 63725 ng/mL
C0 or Cmax ([4]; PO solution, 30 mg/Kg): 6610 ng/mL
AUC(0-t) ([4]; in vivo, IV, 3 mg/Kg): 50700 ng·h/mL
half-life ([4]; in vivo, IV, 3 mg/Kg): 2.59 h
clearance ([4]; in vivo, IV, 3 mg/Kg, read-out: Cl_obs (observed clearance)): 0.986 mL/min/kg
Vd ([4]; in vivo, IV, 3 mg/Kg, read-out: Vss_obs): 0.101 L/kg
AUC(0-t) ([4]; in vivo, PO solution, 30 mg/Kg): 15200 ng·h/mL
half-life ([4]; in vivo, PO solution, 30 mg/Kg): 2.69 h
bioavailability ([4]; in vivo, po, 30 mg/kg, PO solution, 30 mg/Kg, read-out: F (bioavailability, fraction absorbed)): 3%

COc1cccc(CNc2ccc(S(=O)(=O)Nc3nc4ccccc4o3)cc2)c1O [Compound 2, N-(benzo[d]oxazol-2-yl)-4-((2-hydroxy-3-methoxybenzyl)amino)benzenesulfonamide]
solubility in water (Aqueous solubility): poor solubility in water
12-LOX inhibitor selectivity (12-LOX): selective
12-LOX inhibitory potency (12-LOX): highly potent

COc1cccc(CNc2ccc(S(=O)(=O)Nc3cccc(C(C)C)c3)cc2)c1O [Compound 3, 4-((2-hydroxy-3-methoxybenzyl)amino)-N-(3-isopropylphenyl)benzenesulfonamide]
solubility in water (Aqueous solubility): poor solubility in water
12-LOX inhibitor selectivity (12-LOX): selective
12-LOX inhibitory potency (12-LOX): highly potent
